Earlier results in US7794750B2, “Controlled-release formulations, method of manufacture, and use thereof” (Mutual Pharmaceutical Company, Inc., priority 2008, dated 2010).
Counter-ions that a name gives are not always drawn.

Details: 25° C., pH of about 7

**Q.** For `OCCOCCN1CCN(C2=Nc3ccccc3Sc3ccccc32)CC1` [Quetiapine fumarate, quetiapine fumarate], which aqueous solubility is on record?
**A.** Its aqueous solubility is 3290 µg/mL.
